Data published in patent publication US20250098679A1, “HERBICIDAL PYRIDONE DERIVATIVES” (SYNGENTA CROP PROTECTION AG, priority 2021, published 2025).

Experiments:
Format in all cases: in vivo
Details in all cases: evaluated after 13 days
[1] = tested on: Echinochloa crus-galli (ECHCG); assay: Post-emergence Test, Echinochloa crus-galli (ECHCG); set-up: key to percentage damage caused to the plant, ECHCG (five-point scale): 5=81-100%, 4=61-80%, 3=41-60%, 2=21-40%, 1=0-20% damage
Protocol: (§1) Seeds of a variety of test species are sown in standard soil in pots (Setaria faberi (SETFA), Echinochloa crus-galli (ECHCG), Zea mays (ZEAMX), Ipomoea hederacea (IPOHE), Amaranthus palmeri (AMAPA), Amaranthus retoflexus (AMARE)). After 8 days cultivation under controlled conditions in a glasshouse (at 24° C./16° C., day/night; 14 hours light; 65% humidity), the plants are sprayed with an aqueous spray solution derived from the formulation of the technical active ingredient in acetone/water (50:50) solution containing 0.5% Tween 20 (polyoxyethelyene sorbitan monolaurate, CAS RN 9005-64-5). Compounds are applied at 1000 g/ha unless otherwise stated. The test plants are then grown in a glasshouse under controlled conditions in a glasshouse (at 24° C./16° C., day/night; 14 hours light; 65% humidity) and watered twice daily. After 13 days the test is evaluated for the percentage damage caused to the plant. The biological activities are shown in the following table on a five-point scale (5=81-100%; 4=61-80%; 3=41-60%; 2=21-40%; 1=0-20%; -=not tested).

Setaria faberi (SETFA) = assay: Post-emergence Test, Setaria faberi (SETFA); set-up: key to percentage damage caused to the plant, SETFA (five-point scale): 5=81-100%, 4=61-80%, 3=41-60%, 2=21-40%, 1=0-20% damage
Protocol: as §1

Zea mays (ZEAMX) = assay: Post-emergence Test, Zea mays (ZEAMX); set-up: key to percentage damage caused to the plant, ZEAMX (five-point scale): 5=81-100%, 4=61-80%, 3=41-60%, 2=21-40%, 1=0-20% damage
Protocol: as §1

[2] = tested on: Amaranthus retoflexus (AMARE); assay: Post-emergence Test, Amaranthus retoflexus (AMARE); set-up: key to percentage damage caused to the plant, AMARE (five-point scale): 5=81-100%, 4=61-80%, 3=41-60%, 2=21-40%, 1=0-20% damage
Protocol: as §1

[3] = tested on: Amaranthus palmeri (AMAPA); assay: Post-emergence Test, Amaranthus palmeri (AMAPA); set-up: key: 5=81-100%, 4=61-80%, 3=41-60%, 2=21-40%, 1=0-20% damage
Protocol: as §1

[4] = tested on: Ipomoea hederacea (IPOHE); assay: Post-emergence Test, Ipomoea hederacea (IPOHE); set-up: key to percentage damage caused to the plant, IPOHE (five-point scale): 5=81-100%, 4=61-80%, 3=41-60%, 2=21-40%, 1=0-20% damage
Protocol: as §1

Compound	percentage damage caused to the plant, ECHCG (five-point scale) ([1]; 250 g/Ha)	percentage damage caused to the plant, ECHCG (five-point scale) ([1]; 1000 g/ha)	percentage damage caused to the plant, SETFA (five-point scale) (Setaria faberi (SETFA); 250 g/Ha)	percentage damage caused to the plant, SETFA (five-point scale) (Setaria faberi (SETFA); 1000 g/ha)	percentage damage caused to the plant, ZEAMX (five-point scale) (Zea mays (ZEAMX); 250 g/Ha)	percentage damage caused to the plant, ZEAMX (five-point scale) (Zea mays (ZEAMX); 1000 g/ha)	percentage damage caused to the plant, AMARE (five-point scale) ([2]; 250 g/Ha)	percentage damage caused to the plant, AMARE (five-point scale) ([2]; 1000 g/ha)	percentage damage caused to the plant, AMAPA (five-point scale) ([3]; 250 g/Ha)	percentage damage caused to the plant, AMAPA (five-point scale) ([3]; 1000 g/ha)	percentage damage caused to the plant, IPOHE (five-point scale) ([4]; 250 g/Ha)	percentage damage caused to the plant, IPOHE (five-point scale) ([4]; 1000 g/ha)	also measured
CCn1c(Cn2nc3ccccc3n2)cc(=O)c(C(=O)O)c1-c1ccc(Cl)c(Cl)c1 [Compound 55, 6-(benzotriazol-2-ylmethyl)-2-(3,4-dichlorophenyl)-1-ethyl-4-oxo-pyridine-3-carboxylic acid]	2 (2=21-40%)	2 (2=21-40%)	0	1 (1=0-20%)	0	1 (1=0-20%)	1 (1=0-20%)	0	1 (1=0-20%)	3 (3=41-60%)	0	3 (3=41-60%)	–
C/C=C/C(=O)Nc1ccn(Cc2cc(=O)c(C(=O)O)c(-c3ccc(Cl)c(Cl)c3)n2CC)n1 [Compound 155, 6-[[3-[[(E)-but-2-enoyl]amino]pyrazol-1-yl]methyl]-2-(3,4-dichlorophenyl)-1-ethyl-4-oxo-pyridine-3-carboxylic acid]	1 (1=0-20%)	1 (1=0-20%)	1 (1=0-20%)	0	0	0	1 (1=0-20%)	0	1 (1=0-20%)	1 (1=0-20%)	1 (1=0-20%)	0	–
CCn1c(Cn2ccc(-c3ccc(Cl)cc3)n2)cc(=O)c(C(=O)O)c1-c1ccc(Cl)c(Cl)c1 [Compound 199, 6-[[3-(4-chlorophenyl)pyrazol-1-yl]methyl]-2-(3,4-dichlorophenyl)-1-ethyl-4-oxo-pyridine-3-carboxylic acid]	–	–	–	–	–	–	–	–	–	–	–	–	Post-emergence Test ECHCG, percentage damage caused to the plant (five-point scale) ([1]; 250 g/Ha (*)): 1 (1=0-20%); Post-emergence Test SETFA, percentage damage caused to the plant (five-point scale) (Setaria faberi (SETFA); 1000 g/ha): 0; Post-emergence Test ZEAMX, percentage damage caused to the plant (five-point scale) (Zea mays (ZEAMX); 250 g/Ha (*)): 0; Post-emergence Test ZEAMX, percentage damage caused to the plant (five-point scale) (Zea mays (ZEAMX); 1000 g/ha): 0; Post-emergence Test AMARE, percentage damage caused to the plant (five-point scale) ([2]; 250 g/Ha (*)): 0; Post-emergence Test AMARE, percentage damage caused to the plant (five-point scale) ([2]; 1000 g/ha): 0; Post-emergence Test AMAPA, percentage damage caused to the plant (five-point scale) ([3]; 250 g/Ha (*)): 0; Post-emergence Test AMAPA, percentage damage caused to the plant (five-point scale) ([3]; 1000 g/ha): 0; Post-emergence Test IPOHE, percentage damage caused to the plant (five-point scale) ([4]; 250 g/Ha (*)): 0; Post-emergence Test IPOHE, percentage damage caused to the plant (five-point scale) ([4]; 1000 g/ha): 2 (2=21-40%)
CCn1c(Cn2ccc(C(F)(F)F)n2)cc(=O)c(C(=O)O)c1-c1ccc(S(C)(=O)=O)c(Cl)c1 [Compound 129, 2-(3-chloro-4-methylsulfonyl-phenyl)-1-ethyl-4-oxo-6-[[3-(trifluoromethyl)pyrazol-1-yl]methyl]pyridine-3-carboxylic acid]	–	1 (1=0-20%)	–	0	–	1 (1=0-20%)	–	0	–	0	–	0	–
CCn1c(Cn2cnc(F)c2)cc(=O)c(C(=O)O)c1-c1ccc(Cl)c(Cl)c1 [Compound 77, 2-(3,4-dichlorophenyl)-1-ethyl-6-[(4-fluoroimidazol-1-yl)methyl]-4-oxo-pyridine-3-carboxylic acid]	–	1 (1=0-20%)	–	0	–	1 (1=0-20%)	–	1 (1=0-20%)	–	1 (1=0-20%)	–	0	–
CCOC(=O)c1c(-c2ccc(Cl)c(Cl)c2)n(CC)c(Cn2cncn2)cc1=O [Compound 60, ethyl 2-(3,4-dichlorophenyl)-1-ethyl-4-oxo-6-(1,2,4-triazol-1-ylmethyl)pyridine-3-carboxylate]	–	2 (2=21-40%)	–	1 (1=0-20%)	–	0	–	1 (1=0-20%)	–	0	–	1 (1=0-20%)	–
CCOC(=O)c1c(-c2ccc(Cl)c(Cl)c2)n(CC)c(Cn2cnc(Cl)c2Cl)cc1=O [Compound 68, ethyl 6-[(4,5-dichloroimidazol-1-yl)methyl]-2-(3,4-dichlorophenyl)-1-ethyl-4-oxo-pyridine-3-carboxylate]	0	1 (1=0-20%)	1 (1=0-20%)	1 (1=0-20%)	1 (1=0-20%)	0	1 (1=0-20%)	1 (1=0-20%)	1 (1=0-20%)	1 (1=0-20%)	1 (1=0-20%)	1 (1=0-20%)	–
CCn1c(Cn2nc3c(c2C(F)F)COCC3)cc(=O)c(C(=O)O)c1-c1ccc(Cl)c(Cl)c1 [Compound 97, 2-(3,4-dichlorophenyl)-6-[[3-(difluoromethyl)-6,7-dihydro-4H-pyrano[4,3-c]pyrazol-2-yl]methyl]-1-ethyl-4-oxo-pyridine-3-carboxylic acid]	1 (1=0-20%)	–	0	–	1 (1=0-20%)	–	1 (1=0-20%)	–	1 (1=0-20%)	–	0	–	–
CCOC(=O)c1nccn1Cc1cc(=O)c(C(=O)O)c(-c2ccc(Cl)c(Cl)c2)n1CC [Compound 110, 2-(3,4-dichlorophenyl)-6-[(2-ethoxycarbonylimidazol-1-yl)methyl]-1-ethyl-4-oxo-pyridine-3-carboxylic acid]	–	1 (1=0-20%)	–	1 (1=0-20%)	–	0	–	0	–	0	–	1 (1=0-20%)	–
CCOC(=O)c1c(-c2ccc(Cl)c(Cl)c2)n(CC)c(Cn2cnc([N+](=O)[O-])c2)cc1=O [Compound 51, ethyl 2-(3,4-dichlorophenyl)-1-ethyl-6-[(4-nitroimidazol-1-yl)methyl]-4-oxo-pyridine-3-carboxylate]	–	1 (1=0-20%)	–	1 (1=0-20%)	–	0	–	0	–	1 (1=0-20%)	–	1 (1=0-20%)	–
CCOC(=O)c1c(-c2ccc(Cl)c(Cl)c2)n(CC)c(Cn2cnc([N+](=O)[O-])n2)cc1=O [Compound 43, ethyl 2-(3,4-dichlorophenyl)-1-ethyl-6-[(3-nitro-1,2,4-triazol-1-yl)methyl]-4-oxo-pyridine-3-carboxylate]	1 (1=0-20%)	1 (1=0-20%)	0	1 (1=0-20%)	0	1 (1=0-20%)	1 (1=0-20%)	0	1 (1=0-20%)	1 (1=0-20%)	0	0	–
